Test results published in patent US20110224276A1, “OPTICAL ISOMER OF PHENYLPROPIONIC ACID AND ITS MEDICINAL USE” (priority 2008, published 2011).

Columns and labels:
ICR mice [1] = test: in vivo; details: LD50 ig compared with S
Excerpt: (§1) Each tested group includes 5 dose-groups during the tests as follows:
(§2) Intragastric administration (ig)
(§3) (3) Observed periods: 14 days

in vivo [2] = details: mouse, in vivo, po
Excerpt: as §1, §2, §3

Cox-1 = target: T1, Cox-1 (Ovis aries, UniProt P05979); test: inhibiting activity to COX-1 (TMPD colorimetric, 590 nm); type: biochemical; details: tested at 300, 100, 30, 10 μmol/L (positive control 100, 30, 10, 3)
T1 construct: purchased Cayman, USA
T1 sequence (P05979 25-600): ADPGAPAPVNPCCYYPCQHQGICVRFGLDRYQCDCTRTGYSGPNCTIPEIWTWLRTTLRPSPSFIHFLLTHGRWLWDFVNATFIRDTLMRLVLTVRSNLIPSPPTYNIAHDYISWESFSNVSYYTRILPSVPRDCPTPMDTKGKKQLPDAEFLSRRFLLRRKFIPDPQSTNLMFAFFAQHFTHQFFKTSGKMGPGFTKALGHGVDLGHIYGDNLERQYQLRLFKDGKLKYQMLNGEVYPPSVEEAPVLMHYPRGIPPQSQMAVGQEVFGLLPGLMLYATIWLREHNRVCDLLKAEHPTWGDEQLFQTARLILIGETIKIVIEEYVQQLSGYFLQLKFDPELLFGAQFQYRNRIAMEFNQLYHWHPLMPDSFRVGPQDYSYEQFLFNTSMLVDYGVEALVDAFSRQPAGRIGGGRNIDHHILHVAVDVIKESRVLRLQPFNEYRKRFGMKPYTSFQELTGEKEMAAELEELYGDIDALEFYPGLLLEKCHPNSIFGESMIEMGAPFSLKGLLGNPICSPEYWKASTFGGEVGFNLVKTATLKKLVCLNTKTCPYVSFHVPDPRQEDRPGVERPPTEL
Experimental: (§4) 2.5.1 The Inhibiting Activity to COX-1/COX-2
(§5) (1) In 220 ul of reaction system, mixed buffer (1×), heme, COX-1/COX-2, and the compound to be tested, are sequentially added, and are incubated for 5 minutes at 25° C.;
(§6) (2) Adding chromogenic substrate (TMPD) and arachidonic acid;
(§7) (3) Carefully shaking the plate for several seconds, then incubating for 15 minutes at 25° C.;
(§8) (4) Detecting absorption value at 590 nm.
(§9) Fitting data of concentration (μmol/L) and corresponding inhibition rate (%) via Microsoft EXCEL software to get a trendline, so as to obtain the half-effective inhibiting concentration (IC50) of each tested enzyme.

SD rats [3] = test: long-term toxicity test in SD rats, thirteen-week consecutive intragastric administration and four-week convalescence; details: for nontoxic dosage: 13-week consecutive intragastric administration
Experimental: 2. […] The tested samples are formulated into suspensions by milling with 0.5% CMC—Na; intragastric administration (10 ml/kg) every day for consecutive 13 weeks; on each day, after administration, the general conditions of the animals are observed, and weight and amount of ingestion are determined once every week. In 24 hours after the last administration, half of rats in each tested group are fasted overnight, blood samples are withdrawn via femoral arteries, and the rats are dissected, and the indexes of blood cytology and biochemics, gloss anatomy and histopathological examination are preformed. The administration to remaining half rats is stopped, and the convalescence is observed; general conditions are observed and weight and amount of ingestion are determined once every week. After 4 weeks, the observation is complete, and the half of rats in each tested group are fasted overnight, blood samples are withdrawn via femoral arteries, and the rats are dissected, and the indexes of blood cytology and biochemics, gloss anatomy and histopathological examination are preformed.

ICR mice [4] = test: in vivo; details: LD50 ip compared with S
Excerpt: as §1
(§10) Intraperitoneal injection (ip)
(§11) (3) Observed periods: 14 days.

in vivo [5] = details: mouse, in vivo, ip
Excerpt: as §1, §10, §11

[6] = test system: writhing in mice induced by acetic acid; test: writhing in mice induced by acetic acid; type: in vivo; details: for ED50: Mus musculus, read-out: ED50 (mg/kg) of inhibition of writhing; for maximum inhibitory rate (%) on mouse writhing: ig 1 h before 0.6% acetic acid ip, maximum of three dose groups (30, 10, 3 mg/kg; R 90, 30, 10 mg/kg), n=10
Experimental: For each group, the required weights of drugs are weighted, and are milled with 0.5% CMC—Na to required concentration ready-for-use.
Each group of animals is fasted for 12 h, but drinking ad libitum. At 1 hour after intragastric administration of corresponding drugs, 0.6% acetic acid (0.2 ml/per) is intraperitoneally injected, and the number of writhing of mice in 15 min after injection are recored. The mice with waist muscle repeat shrinkage, bump back, rump torsion and posterior limb stretch are used as writhing positive animals. Inhibition rates of drugs on writhing are calculated based on the following formula:
Inhibition rate (%)=[(number of writhing of the control group−number of writhing of administrated group)/number of writhing of the control group]×100%
Inhibition rate of each dose-group on writhing (%) is obtained by means of above method. Fitting data of dosage (mg/kg) and corresponding inhibition rate (%) via Microsoft EXCEL software to get a trendline, so as to obtain the half-effective inhibiting dose (ED50) of each tested group on writhing.

Cox-2 = target: T2, Cox-2 (Homo sapiens, UniProt P35354); test: inhibiting activity to COX-2 (TMPD colorimetric, 590 nm); type: biochemical; details: tested at 300, 100, 30, 10 μmol/L (positive control 100, 30, 10, 3)
T2 construct: purchased Cayman, USA
T2 sequence (P35354 18-604): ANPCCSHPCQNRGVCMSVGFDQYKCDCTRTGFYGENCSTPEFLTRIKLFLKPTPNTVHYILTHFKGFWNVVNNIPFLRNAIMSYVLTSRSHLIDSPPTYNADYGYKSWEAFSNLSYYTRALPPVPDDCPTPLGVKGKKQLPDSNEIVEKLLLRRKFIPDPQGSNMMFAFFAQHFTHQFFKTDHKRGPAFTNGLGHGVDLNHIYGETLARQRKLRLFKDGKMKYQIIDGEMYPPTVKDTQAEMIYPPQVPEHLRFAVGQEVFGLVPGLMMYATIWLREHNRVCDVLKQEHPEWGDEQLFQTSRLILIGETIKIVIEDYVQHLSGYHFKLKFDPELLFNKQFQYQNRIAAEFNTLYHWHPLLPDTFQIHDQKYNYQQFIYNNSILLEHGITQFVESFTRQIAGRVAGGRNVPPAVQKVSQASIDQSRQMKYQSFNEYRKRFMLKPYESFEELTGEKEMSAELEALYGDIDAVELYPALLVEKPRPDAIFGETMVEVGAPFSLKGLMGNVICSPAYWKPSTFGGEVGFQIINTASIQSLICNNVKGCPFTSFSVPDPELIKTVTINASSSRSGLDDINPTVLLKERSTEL
Experimental: as §4, §5, §6, §7, §8, §9

SD rats [7] = test: toxicity test in SD rats, four-week consecutive intragastric administration; details: for animals dead during 4 weeks administration: 10 rats per group; for nontoxic dosage: four-week consecutive intragastric administration
Experimental: 2. […] The tested samples are formulated into suspensions by milling with 0.5% CMC—Na; intragastric administration every day (10 ml/kg) for consecutive 4 weeks; on each day, after administration, the general conditions of the animals are observed, and weight and amount of ingestion are determined once every week. In 24 hours after the last administration, the rats are fasted overnight, blood samples are withdrawn via femoral arteries, and the rats are dissected, and the indexes of blood cytology and biochemics, gloss anatomy and histopathological examination are preformed.

SMILES: CC(C(=O)O)c1ccc2c(c1)CC(=O)c1ccccc1S2 (racemic) [RS, 10,11-dihydro-alpha-methyl-10-oxo-dibenzo[b,f]tiazem-2-acetic acid, reference compound]
- Com. Vs. S (multiple) (ICR mice [1]): 1.2 multiple
- LD50 at 14 days (in vivo [2]): 327 ± 30.7 mg/kg
- IC50 (Cox-1): 153 µM
- animals dead during thirteen-week administration (SD rats [3]; 50 mg/kg ig daily, 20 rats per group): 2 animals
- gastrointestinal tract toxicity (SD rats [3]; 13-week ig, rats, S 50, 25, RS 50, R 400, 200, 100, R:S=6:1 200, 100, 50 mg/kg): produces significant gastrointestinal tract toxicity
- nontoxic dosage (SD rats [3]; rats): 25 mg/kg
- Com. Vs. S (multiple) (ICR mice [4]): 1.3 multiple
- LD50 at 14 days (in vivo [5]): 252 ± 18.9 mg/kg
- ED50 [6]: 9.2 mg/kg
- maximum inhibitory rate (%) on mouse writhing [6]: 63.6%
- IC50 (Cox-2): 7.6 µM
- animals dead during 4 weeks administration (SD rats [7]; 80 mg/kg ig daily): 2 animals
- gastrointestinal tract toxicity (SD rats [7]; four-week ig, rats, S 80, 40, RS 80, R 480, 240, 120, R:S=6:1 320, 160, 80 mg/kg): produces significant gastrointestinal tract toxicity
- nontoxic dosage (SD rats [7]; rats): 40 mg/kg

SMILES: C[C@@H](C(=O)O)c1ccc2c(c1)CC(=O)c1ccccc1S2 [R, R-10,11-dihydro-alpha-methyl-10-oxo-dibenzo[b,f]tiazem-2-acetic acid]
- Com. Vs. S (multiple) (ICR mice [1]): 14.9 multiple
- LD50 at 14 days (in vivo [2]; ICR): 3990 ± 153 mg/kg
- IC50 (Cox-1): > 300 µM
- nontoxic dosage (SD rats [3]; rats): 200 mg/kg
- Com. Vs. S (multiple) (ICR mice [4]): 3.7 multiple
- LD50 at 14 days (in vivo [5]; ICR): 744 ± 69.8 mg/kg
- ED50 [6]: 25.4 mg/kg
- maximum inhibitory rate (%) on mouse writhing [6]: 71.3%
- IC50 (Cox-2): 48.6 µM
- nontoxic dosage (SD rats [7]; rats): 240 mg/kg

SMILES: C[C@H](C(=O)O)c1ccc2c(c1)CC(=O)c1ccccc1S2 [S, S-10,11-dihydro-alpha-methyl-10-oxo-dibenzo[b,f]tiazem-2-acetic acid]
- Com. Vs. S (multiple) (ICR mice [1]): 1.0 multiple
- LD50 at 14 days (in vivo [2]; ICR): 268 ± 22.2 mg/kg
- IC50 (Cox-1): 186 µM
- nontoxic dosage (SD rats [3]; rats): 12.5 mg/kg
- Com. Vs. S (multiple) (ICR mice [4]): 1.0 multiple
- LD50 at 14 days (in vivo [5]; ICR): 201 ± 14.3 mg/kg
- ED50 [6]: 8.6 mg/kg
- maximum inhibitory rate (%) on mouse writhing [6]: 80.1%
- IC50 (Cox-2): 21.6 µM
- animals dead during 4 weeks administration (SD rats [7]; 40 mg/kg ig daily): one
- animals dead during 4 weeks administration (SD rats [7]; 80 mg/kg ig daily): four
- nontoxic dosage (SD rats [7]; rats): 20 mg/kg
